Experimental data as given in US8906888B2, “Low-calcemic 16,23-diene 25-oxime analogs of 1α,25-dihydroxy vitamin D3” (Cytochroma Inc., priority 2005, dated 2014).

Assays:
VDR = target: T1, VDR (Homo sapiens, UniProt P11473); test: VDR binding assay ([3H]-1,25(OH)2D3 displacement); settings: human recombinant VDR; read-out: B50 (VDR binding, displacement of 50 percent [3H]-1,25(OH)2D3)
T1 construct: purchased Biomol
T1 sequence (P11473 1-427): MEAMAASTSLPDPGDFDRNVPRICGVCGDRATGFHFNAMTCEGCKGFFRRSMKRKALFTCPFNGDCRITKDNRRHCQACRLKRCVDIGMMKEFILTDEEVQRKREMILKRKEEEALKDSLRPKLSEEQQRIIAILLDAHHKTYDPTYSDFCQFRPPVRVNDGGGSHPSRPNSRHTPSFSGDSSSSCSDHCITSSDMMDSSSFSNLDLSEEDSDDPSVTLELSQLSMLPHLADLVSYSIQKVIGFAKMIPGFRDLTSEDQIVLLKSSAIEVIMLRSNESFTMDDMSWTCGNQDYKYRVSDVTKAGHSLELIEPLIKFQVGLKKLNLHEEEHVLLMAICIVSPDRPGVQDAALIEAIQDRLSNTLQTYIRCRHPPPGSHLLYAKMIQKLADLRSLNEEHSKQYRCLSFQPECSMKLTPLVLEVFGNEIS
Procedure: • 1. VDR 9.4 μmol/μl (human, recombinant, Biomol). • 2. [^3H]-1,25(OH)2D3 in ethanol • 3. 1,25(OH)2D3 in ethanol • 4. TEK300 • Tris-HCl 50 mM • EDTA 1.5 mM • KCl 300 mM • Adjusted pH to 7.4 (25° C.) • 5. TEDK300 • TEK300 • DTT (dithiothreitol) 10 mM (MW 154.24) • 6. Tris buffer • 22.50 g Tris-HCI • 500 ml H2O • 13.25 g Tris-base • 500 ml H2O • Kept in 4° C. • 7. Dextran-T70 (Mol 70,000) Pharmacia • 8. Charcoal (carbon decolorizing neutral, norit) Fisher Scientific • 9. Gelatin (G-2625 Sigma) (ii) Reagent Preparation: 1. Charcoal Dextran Solution
(1) Tris Buffer • Mixed equal amount of Tris-HCl and Tris-base.
(2) Norit decolorizing neutral charcoal 2.0 g • Tris buffer 150 mL • Stirred
(3) Dextran T-70 0.2 g • Tris buffer 50 ml.
(4) Slowly dripped the suspended dextran into charcoal solution with stirring. • Kept in refrigerator overnight. • Thirty minutes before use, stored on ice with continuous mixing. 2. […]
• Pipetted 100 μL of the upper, aqueous phase to a 24 well scintillation counting plate and added 600 μL scintillation fluid per well, covered and mixed well. Counted the plate using a scintillation counter for 5 min/sample. (iv) Calculations: • The amount of 1,25(OH)2D3 to displace 50 percent [^3H]-1,25(OH)2D3 from VDR was calculated as B50 for 1,25(OH)2D3. The VDR binding of other compounds was calculated as B50 relative to a value of 1 for 1,25(OH)2D3. • Serial Dilution of 1,25(OH)D3

[1] = target: T2, DBP (vitamin D binding protein) (Homo sapiens, UniProt P02774); test: DBP binding assay (human plasma, [3H]-25(OH)D3 displacement); settings: human plasma diluted 1:5000; read-out: B50 (DBP binding, displacement of 50 percent [3H]-25(OH)D3)
T2 construct: Human plasma diluted to 1:5000 with Tris buffer/gelatin solution; from tissue; host or cells: human plasma
T2 sequence (P02774 17-474): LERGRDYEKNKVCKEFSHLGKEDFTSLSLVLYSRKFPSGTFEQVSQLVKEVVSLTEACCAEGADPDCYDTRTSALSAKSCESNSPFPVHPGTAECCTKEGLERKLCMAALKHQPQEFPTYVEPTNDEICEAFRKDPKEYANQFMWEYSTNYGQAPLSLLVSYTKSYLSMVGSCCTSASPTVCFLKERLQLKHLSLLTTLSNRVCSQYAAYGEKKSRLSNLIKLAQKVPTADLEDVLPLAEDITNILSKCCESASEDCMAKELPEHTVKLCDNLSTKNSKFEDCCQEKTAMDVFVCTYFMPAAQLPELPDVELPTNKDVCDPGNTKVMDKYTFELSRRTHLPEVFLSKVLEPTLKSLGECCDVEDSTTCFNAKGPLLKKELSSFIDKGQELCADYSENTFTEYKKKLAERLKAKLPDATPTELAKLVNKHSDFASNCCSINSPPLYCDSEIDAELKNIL
Procedure: 1. Tris buffer: • 22.50 g Tris-HCI • 500 ml H2O
5. DBP (vitamin D binding protein) (human plasma)
2. Dextran Coated Charcoal Solution • (1) preparation of charcoal solution • Norit decolorizing neutral charcoal 2.0 g • Tris buffer 150 mL • Stirring • (2) preparation of dextran solution • Dextran T—70 0.2 g • Tris buffer 50 ml • (3) preparation of dextran coated charcoal solution • Slowly dripped the dextran solution into charcoal solution with stirring. • Kept refrigerated overnight. • Thirty minute before use, kept it on ice with continuous mixing. • This solution can be kept in 4° C. for 2 month.
4. DBP Solution • Human plasma diluted to 1:5000 with Tris buffer/gelatin solution
8. [^3H-26,27]-[…] Solution • Stock solution diluted in Tris buffer, 20,000 CPM/50 μl. (C) Assay
(D) Calculation: • The amount of 25(OH)D3 to displace 50 percent [3H]-25(OH)D3 was calculated as B50 for 25(OH)D3 DBP binding. The DBP binding of other compounds was calculated as B50 relative to a value of 1 for 25(OH)D3.

Structure (SMILES): C=C1/C(=C\C=C2/CCC[C@]3(C)C([C@H](C)C/C=C/C(=NOC)C(C)(C)C)=CC[C@@H]23)C[C@@H](O)C[C@@H]1O [(20R)-I(e)]
- IC50 (VDR): 60 nM
- IC50 [1]: > 3500 nM
